Like-named read-outs stand apart in the source and are kept apart here.
Tests used:
Type in all cases: cell-based
[1] = target: T1, protein kinases (human kinome) (Homo sapiens, UniProt Q9UEE5); settings: STK17A Q9UEE5
T1 sequence (Q9UEE5 1-414): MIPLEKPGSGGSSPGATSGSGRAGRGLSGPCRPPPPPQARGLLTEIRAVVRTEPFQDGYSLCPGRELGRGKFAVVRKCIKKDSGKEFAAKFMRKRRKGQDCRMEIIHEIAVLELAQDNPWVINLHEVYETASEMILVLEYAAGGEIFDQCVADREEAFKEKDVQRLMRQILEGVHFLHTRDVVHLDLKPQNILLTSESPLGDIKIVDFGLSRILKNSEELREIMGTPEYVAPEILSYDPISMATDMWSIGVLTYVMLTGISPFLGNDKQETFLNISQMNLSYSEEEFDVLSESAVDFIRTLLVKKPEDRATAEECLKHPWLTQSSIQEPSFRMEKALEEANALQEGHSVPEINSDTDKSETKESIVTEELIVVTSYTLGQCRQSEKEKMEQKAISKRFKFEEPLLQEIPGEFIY

[2] = target: T2, protein kinases (human kinome) (Homo sapiens, UniProt O94768); settings: for logFC STK17B (O94768): direction down; for logFC: STK17B (O94768)
T2 sequence (O94768 1-372): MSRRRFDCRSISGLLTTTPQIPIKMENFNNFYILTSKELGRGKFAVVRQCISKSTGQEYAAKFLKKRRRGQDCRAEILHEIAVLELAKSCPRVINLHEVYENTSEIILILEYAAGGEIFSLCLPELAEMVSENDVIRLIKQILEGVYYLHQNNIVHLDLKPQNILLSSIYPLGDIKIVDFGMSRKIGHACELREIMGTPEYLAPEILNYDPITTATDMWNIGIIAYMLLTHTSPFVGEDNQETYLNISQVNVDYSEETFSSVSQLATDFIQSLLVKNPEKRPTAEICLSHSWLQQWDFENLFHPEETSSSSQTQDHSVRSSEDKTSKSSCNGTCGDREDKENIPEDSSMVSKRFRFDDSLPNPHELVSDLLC

[3] = target: protein kinases (human kinome) (Homo sapiens, UniProt P41240); settings: for logFC of CSK: Accession P41240; for logFC CSK: CSK (P41240), down
[4] = target: protein kinases (human kinome) (Homo sapiens, UniProt P24941)
[5] = target: protein kinases (human kinome) (Homo sapiens, UniProt Q16584)
Sequence of protein kinases (human kinome) (Homo sapiens, UniProt Q16584) (Q16584 whole entry): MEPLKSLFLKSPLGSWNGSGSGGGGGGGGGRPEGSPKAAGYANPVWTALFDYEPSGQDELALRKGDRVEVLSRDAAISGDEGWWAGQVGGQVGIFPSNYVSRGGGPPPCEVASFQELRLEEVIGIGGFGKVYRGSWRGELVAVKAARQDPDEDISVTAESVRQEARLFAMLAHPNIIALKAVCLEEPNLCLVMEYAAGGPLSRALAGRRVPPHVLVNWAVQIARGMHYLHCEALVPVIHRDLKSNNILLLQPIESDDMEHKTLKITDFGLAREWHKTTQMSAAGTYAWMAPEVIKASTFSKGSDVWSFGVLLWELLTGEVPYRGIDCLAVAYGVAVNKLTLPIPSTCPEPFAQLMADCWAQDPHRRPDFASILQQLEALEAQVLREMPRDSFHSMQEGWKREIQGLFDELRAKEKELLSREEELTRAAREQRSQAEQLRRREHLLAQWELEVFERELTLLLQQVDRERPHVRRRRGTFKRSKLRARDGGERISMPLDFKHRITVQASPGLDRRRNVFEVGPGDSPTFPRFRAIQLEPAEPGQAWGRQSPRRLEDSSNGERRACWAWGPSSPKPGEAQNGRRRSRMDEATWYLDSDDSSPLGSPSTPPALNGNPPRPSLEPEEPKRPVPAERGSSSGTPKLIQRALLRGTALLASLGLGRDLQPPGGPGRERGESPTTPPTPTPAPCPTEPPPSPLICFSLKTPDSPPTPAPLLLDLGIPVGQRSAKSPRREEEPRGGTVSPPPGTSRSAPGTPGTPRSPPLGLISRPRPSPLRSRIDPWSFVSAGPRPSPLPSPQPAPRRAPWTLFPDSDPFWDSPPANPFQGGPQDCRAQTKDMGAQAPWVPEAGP

Sequence of protein kinases (human kinome) (Homo sapiens, UniProt P41240) (P41240 whole entry): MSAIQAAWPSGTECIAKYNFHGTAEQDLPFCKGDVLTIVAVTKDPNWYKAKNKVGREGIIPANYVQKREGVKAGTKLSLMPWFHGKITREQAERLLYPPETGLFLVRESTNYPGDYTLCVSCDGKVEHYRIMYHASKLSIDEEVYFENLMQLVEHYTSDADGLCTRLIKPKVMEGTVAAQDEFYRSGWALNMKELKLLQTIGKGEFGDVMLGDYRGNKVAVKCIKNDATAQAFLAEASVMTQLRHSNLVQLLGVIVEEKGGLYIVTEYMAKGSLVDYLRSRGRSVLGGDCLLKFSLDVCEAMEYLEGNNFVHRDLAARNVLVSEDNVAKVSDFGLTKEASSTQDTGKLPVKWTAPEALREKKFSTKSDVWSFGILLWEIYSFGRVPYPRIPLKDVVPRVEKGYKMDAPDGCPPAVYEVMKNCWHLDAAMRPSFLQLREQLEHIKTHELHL

What does the source list for `O=C(COc1cccc2c1C(=O)N(C1CCC(=O)NC1=O)C2=O)NCCCCCCCN1CCc2cc(Nc3ncc(C4CC4)c(NCCCNC(=O)C4CCC4)n3)ccc2C1` (centres unmarked) [BSJ.04.178]?
logFC ([1]; experiment wp134): −0.7107; logFC STK17A ([1]; experiment wp134): −0.7107; logFC STK17B (O94768) ([2]; Experiment wp134): −1.604; logFC ([2]; experiment wp134): −1.604

How did the logFC ([1]; experiment wp195) turn out when `Cc1ncsc1-c1ccc([C@H](C)NC(=O)[C@@H]2C[C@@H](O)CN2C(=O)[C@@H](NC(=O)CCCCCN2CCc3cc(Nc4ncc(C5CC5)c(NCCCNC(=O)C5CCC5)n4)ccc3C2)C(C)(C)C)cc1` [BSJ.05.026] was run?
Its logFC is −0.5209.

And the “logFC STK17A” value ([1]; experiment wp195)?
Its value is −0.5209.

What about the “logFC STK17B (O94768)” value ([2]; Experiment wp195) of the same molecule?
Its value is −0.9299.

What about the logFC ([2]; experiment wp195) of the same molecule?
The logFC was −0.9299.

With `Cc1ccc(NC(=O)c2cccc(C(F)(F)F)c2)cc1N1Cc2cnc(Nc3ccc(N4CCN(CCCCCCOc5cccc6c5C(=O)N(C5CCC(=O)NC5=O)C6=O)CC4)nc3)nc2N(C)C1=O` (centres unmarked) [DB0663] as the molecule, how does the “logFC of CSK” value ([3]; experiment wp045) read?
Its value is −1.206.

What about the “logFC CSK” value ([3]; experiment wp045) of the same molecule?
Its value is −1.206.

What does the source list for `Cc1ccc(NC(=O)c2cccc(C(F)(F)F)c2)cc1N1Cc2cnc(Nc3ccc(N4CCN(CCCCC(=O)N[C@H](C(=O)N5C[C@H](O)C[C@H]5C(=O)N[C@@H](C)c5ccc(-c6scnc6C)cc5)C(C)(C)C)CC4)nc3)nc2N(C)C1=O` [DB1113]?
logFC of CSK ([3]; experiment wp168): −1.62; logFC CSK ([3]; experiment wp168): −1.62

For `Cc1ncsc1-c1ccc([C@H](C)NC(=O)[C@@H]2C[C@@H](O)CN2C(=O)[C@@H](NC(=O)CCOCCOCCN2CCN(c3ccc(Nc4ncc(Cl)c(Nc5ccccc5S(=O)(=O)C(C)C)n4)cc3)CC2)C(C)(C)C)cc1` [FMF.06.098.1], which “logFC CDK2 (P24941-1)” value ([4]; Experiment wp108) is on record?
The value was −0.6501.

What about the “logFC CDK2 (P24941-1)” value ([4]; experiment wp108, direction of change down) of the same molecule?
The value was −0.6501.

And the “logFC CDK2 (P24941-1)” value ([4]; experiment wp131)?
Its value is −0.8725.

What about the “logFC CDK2 (P24941-1)” value ([4]; experiment wp131, direction of change down) of the same molecule?
Its value is −0.8725.

With `C[C@@H]1C[C@@H](O)c2ncnc(N3CCN(C(=O)[C@H](CNCCCCCCCCCCc4cccc5c4C(=O)N(C4CCC(=O)NC4=O)C5=O)c4ccc(Cl)cc4)CC3)c21` (some centres unmarked) [INY.03.041.01] as the molecule, how does the logFC ([1]; experiment wp118) read?
Its logFC is −0.4361.

And the “logFC STK17A” value ([1]; experiment wp118)?
Its value is −0.4361.

What about the “logFC STK17A” value ([1]; experiment wp135, 8 hr) of the same molecule?
Its value is −0.497.

How did the logFC ([1]; experiment wp195) turn out when `Cc1cnc(Nc2ccc(N3CCN(CCCCCCC(=O)N[C@H](C(=O)N4C[C@H](O)C[C@H]4C(=O)N[C@@H](C)c4ccc(-c5scnc5C)cc4)C(C)(C)C)CC3)cc2)nc1Nc1cccc(S(=O)(=O)NC(C)(C)C)c1` [JWG.123] was run?
The logFC was −0.6451.

What about the “logFC STK17A” value ([1]; experiment wp195) of the same molecule?
Its value is −0.6451.

And the “logFC STK17B (O94768)” value ([2]; Experiment wp195)?
The value was −1.872.

What about the logFC ([2]; experiment wp195) of the same molecule?
The logFC was −1.872.

What does the source list for `CCc1cnn2c(N(Cc3ccc(N)nc3)C(=O)CCOCCOCCOCCNC(=O)CNc3cccc4c3C(=O)N(C3CCC(=O)NC3=O)C4=O)cc(N3CCCC[C@H]3CCO)nc12` (some centres unmarked) [MFH.5.115.2]?
logFC ([1]; experiment wp076): −0.6277; logFC STK17A ([1]; experiment wp076): −0.6277

Which results are given for `O=C1CCC(N2C(=O)c3cccc(NCCCCCCCCN4CCC(NC(=O)c5[nH]ncc5NC(=O)c5c(Cl)cccc5Cl)CC4)c3C2=O)C(=O)N1` (centres unmarked) [MFH.5.126.1]?
logFC ([1]; experiment wp076): −0.8984; logFC STK17A ([1]; experiment wp076): −0.8984; logFC STK17B (O94768) ([2]; Experiment wp076): −0.5821; logFC ([2]; experiment wp076): −0.5821

Which results are given for `CS(=O)(=O)Nc1cccc(-c2csc3cnc(Nc4ccc(N5CCN(CCOCCOCCOc6cccc7c6C(=O)N(C6CCC(=O)NC6=O)C7=O)CC5)cc4)nc23)c1` (centres unmarked) [RSS0628]?
logFC ([1]; experiment wp045): −1.48; logFC STK17A ([1]; experiment wp045): −1.48; logFC STK17B (O94768) ([2]; Experiment wp045): −1.075; logFC ([2]; experiment wp045): −1.075

Which results are given for `Cc1ncsc1-c1ccc([C@H](C)NC(=O)[C@@H]2C[C@@H](O)CN2C(=O)[C@@H](NC(=O)CCCCCN2CCN(c3ccc(Nc4ncc5scc(-c6cccc(NS(C)(=O)=O)c6)c5n4)cc3)CC2)C(C)(C)C)cc1` [RSS0680, (2S,4R)-1-((S)-3,3-Dimethyl-2-(6-(4-(4-((7-(3-(methylsulfonamido)phenyl)thieno[3,2-d]pyrimidin-2-yl)amino)phenyl)piperazin-1-yl)hexanamido)butanoyl)-4-hydroxy-N—((S)-1-(4-(4-methylthiazol-5yl)phenyl)ethyl)pyrrolidine-2-carboxamide]?
logFC CDK2 (P24941-1) ([4]; Experiment wp117): −0.6588; logFC CDK2 (P24941-1) ([4]; experiment wp080): −0.4202; logFC CDK2 (P24941-1) ([4]; experiment wp080, direction of change down): −0.4202; logFC CDK2 (P24941-1) ([4]; experiment wp117, direction of change down): −0.6588; logFC ([1]; experiment wp080): −1.118; logFC STK17A ([1]; experiment wp080): −1.118; logFC ([1]; experiment wp117): −1.379; logFC STK17A ([1]; experiment wp117): −1.379; logFC STK17B (O94768) ([2]; Experiment wp080): −1.375; logFC STK17B (O94768) ([2]; Experiment wp117): −1.373; logFC ([2]; experiment wp080): −1.375; logFC ([2]; experiment wp117): −1.373

With `Nc1ncnc2c1c(-c1ccc(Oc3ccccc3)cc1)nn2[C@H]1CC[C@H](N2CCN(CCOCCNC(=O)CNc3cccc4c3C(=O)N(C3CCC(=O)NC3=O)C4=O)CC2)CC1` (some centres unmarked) [SB1.G.181] as the molecule, how does the “logFC of CSK” value ([3]; experiment wp071) read?
The value was −3.229.

What about the “logFC CSK” value ([3]; experiment wp071) of the same molecule?
Its value is −3.229.

With `Cn1c(=O)c(-c2c(Cl)cccc2Cl)cc2cnc(Nc3ccc(OCCNC(=O)CCCCCCNC(=O)COc4cccc5c4C(=O)N(C4CCC(=O)NC4=O)C5=O)cc3)nc21` (centres unmarked) [SB1.G.192.1] as the molecule, how does the “logFC of CSK” value ([3]; experiment wp071) read?
Its value is −2.271.

What about the “logFC of CSK” value ([3]; experiment wp081) of the same molecule?
Its value is −1.966.

And the “logFC of CSK” value ([3]; experiment wp131)?
The value was −1.816.

And the “logFC CSK” value ([3]; experiment wp071)?
Its value is −2.271.

And the “logFC CSK” value ([3]; experiment wp081)?
Its value is −1.966.

What about the “logFC CSK” value ([3]; experiment wp131) of the same molecule?
Its value is −1.816.

`CC(C)S(=O)(=O)c1ccccc1Nc1nc(Nc2ccc(N3CCN(CCOCCNC(=O)CNc4ccc5c(c4)C(=O)N(C4CCC(=O)NC4=O)C5=O)CC3)cc2)ncc1Cl` (centres unmarked) [SK.3.93] was tested. Which “logFC CDK2 (P24941-1)” value ([4]; experiment wp016) did it give?
Its value is −0.5433.

And the “logFC CDK2 (P24941-1)” value ([4]; experiment wp016, direction of change down)?
The value was −0.5433.

Which “logFC CDK2 (P24941-1)” value ([4]; experiment wp137) does the source give for `CC(C)S(=O)(=O)c1ccccc1Nc1nc(Nc2ccc(N3CCN(CCOCCOCCC(=O)NCCNc4cccc5c4CN(C4CCC(=O)NC4=O)C5=O)CC3)cc2)ncc1Cl` (centres unmarked) [TL13.97] here?
Its value is −0.7834.

What about the “logFC CDK2 (P24941-1)” value ([4]; experiment wp137, direction of change down) of the same molecule?
The value was −0.7834.

And the “logFC MAP3K11 (Q16584)” value ([5]; experiment wp137)?
Its value is −0.7626.

What does the source list for `NC(=O)c1c(F)cccc1Nc1nc(Nc2ccc(S(=O)(=O)NCCOCCOCCOCCOCCNc3cccc4c3C(=O)N(C3CCC(=O)NC3=O)C4=O)cc2)ncc1Br` (centres unmarked) [TMX.02.138]?
logFC CDK2 (P24941-1) ([4]; experiment wp146): −2.27; logFC CDK2 (P24941-1) ([4]; experiment wp146, direction of change down): −2.27; logFC MAP3K11 (Q16584) ([5]; experiment wp146): −0.9241

How did the “logFC STK17B (O94768)” value ([2]; Experiment wp056) turn out when `Nc1ncc(-c2ccc(S(=O)(=O)N(CCCNC(=O)CCOCCOCCOCCOCCOCCNc3cccc4c3C(=O)N(C3CCC(=O)NC3=O)C4=O)C3CC3)cc2)cc1-c1ccc2c(c1)CCNC2=O` (centres unmarked) [WH.10417.099] was run?
The value was −1.507.

And the “logFC STK17B (O94768)” value ([2]; Experiment wp103)?
The value was −1.292.

And the “logFC STK17B (O94768)” value ([2]; Experiment wp105)?
The value was −0.7924.

And the “logFC STK17B (O94768)” value ([2]; Experiment wp107)?
The value was −1.472.

What about the “logFC STK17B (O94768)” value ([2]; Experiment wp172) of the same molecule?
The value was −1.234.

What about the logFC ([2]; experiment wp056) of the same molecule?
The logFC was −1.507.

What about the logFC ([2]; experiment wp103) of the same molecule?
The logFC was −1.292.

What about the logFC ([2]; experiment wp105) of the same molecule?
The logFC was −0.7924.

And the logFC ([2]; experiment wp107)?
The logFC was −1.472.

What about the logFC ([2]; experiment wp172) of the same molecule?
Its logFC is −1.234.

— patent US20240269139A1, “COMPOUNDS FOR TARGETED PROTEIN DEGRADATION OF KINASES” (DANA-FARBER CANCER INSTITUTE, INC., priority 2020, published 2024)
